# Where two headings read alike, the source gives them in different places.
# Tests used:
# [1] = target: T1, DCAF7-TFEB interaction (Homo sapiens, UniProt P61962); experiment: Proximity ligation assay of TFEB and DCAF7 in BEAS-2B cells; assay type: cell-based
# T1 construct: endogenous in cells; host or cells: BEAS-2B
# [2] = target: T2, CNR2 (Homo sapiens, UniProt P34972); experiment: Safety47 cAMP CNR2; assay type: cell-based; conditions: for Emax: read-out: Max Response; for EC50: read-out: RC50 (EC50); for IC50: read-out: RC50 (IC50)
# T2 construct: purchased Eurofins Panlab Safety47 Safety Scan
# [3] = target: T3, ADRB2 (Homo sapiens, UniProt P07550); experiment: Safety47 cAMP ADRB2; assay type: cell-based; conditions: for Emax: read-out: Max Response; for EC50: read-out: RC50 (EC50); for IC50: read-out: RC50 (IC50)
# T3 construct: purchased Eurofins Panlab Safety47 Safety Scan
# [4] = target: T4, hERG (Homo sapiens, UniProt Q12809); experiment: Safety47 Ion Channel hERG; assay type: cell-based; conditions: Blocker; for IC50: read-out: RC50 (IC50); for Emax: human, read-out: Max Response
# T4 construct: purchased Eurofins Panlab (Safety47 Safety Scan, contract panel)
# [5] = target: T5, ADRA2A (Homo sapiens, UniProt P08913); experiment: Safety47 cAMP ADRA2A; assay type: cell-based; conditions: for Emax: read-out: Max Response; for EC50: read-out: RC50 (EC50); for IC50: read-out: RC50 (IC50)
# T5 construct: purchased Eurofins Panlab Safety47 Safety Scan
# T5 sequence (P08913 1-465): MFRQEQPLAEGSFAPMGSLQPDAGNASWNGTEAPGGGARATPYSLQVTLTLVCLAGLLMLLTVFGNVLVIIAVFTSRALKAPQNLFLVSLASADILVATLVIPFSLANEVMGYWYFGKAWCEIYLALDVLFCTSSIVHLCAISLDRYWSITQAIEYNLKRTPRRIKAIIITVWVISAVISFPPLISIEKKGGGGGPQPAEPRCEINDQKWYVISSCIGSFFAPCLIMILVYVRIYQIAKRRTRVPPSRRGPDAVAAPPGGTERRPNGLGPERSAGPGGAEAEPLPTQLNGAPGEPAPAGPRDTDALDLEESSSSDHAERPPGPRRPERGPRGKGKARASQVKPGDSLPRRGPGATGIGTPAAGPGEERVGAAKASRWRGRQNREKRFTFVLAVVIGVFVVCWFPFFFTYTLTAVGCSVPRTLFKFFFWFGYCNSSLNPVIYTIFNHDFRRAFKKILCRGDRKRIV
# [6] = target: T6, CNR1 (Homo sapiens, UniProt P21554); experiment: Safety47 cAMP CNR1; assay type: cell-based; conditions: for Emax: read-out: Max Response; for EC50: read-out: RC50 (EC50); for IC50: read-out: RC50 (IC50)
# T6 construct: purchased Eurofins Panlab Safety47 Safety Scan
# [7] = target: T7, nAChR(a4/b2) (Homo sapiens, UniProt P17787+P43681); experiment: Safety47 Ion Channel nAChR(a4/b2); assay type: cell-based; conditions: for Emax: read-out: Max Response; for IC50: read-out: RC50 (IC50); for EC50: read-out: RC50 (EC50)
# T7 construct: purchased Eurofins Panlab (Safety47 Safety Scan, contract panel)
# [8] = target: T8, OPRK1 (Homo sapiens, UniProt P41145); experiment: Safety47 cAMP OPRK1; assay type: cell-based; conditions: for Emax: read-out: Max Response; for EC50: read-out: RC50 (EC50); for IC50: read-out: RC50 (IC50)
# T8 construct: purchased Eurofins Panlab (Safety47 Safety Scan, contract panel)
# [9] = target: T9, OPRM1 (Homo sapiens, UniProt P35372); experiment: Safety47 cAMP OPRM1; assay type: cell-based; conditions: for Emax: OPRM1, cAMP, read-out: Max Response; for EC50: read-out: RC50 (EC50); for IC50: read-out: RC50 (IC50)
# T9 construct: purchased Eurofins Panlab (Safety47 Safety Scan, contract panel)
# [10] = target: T10, OPRD1 (Homo sapiens, UniProt P41143); experiment: Safety47 cAMP OPRD1; assay type: cell-based; conditions: for Emax: read-out: Max Response; for EC50: read-out: RC50 (EC50); for IC50: read-out: RC50 (IC50)
# T10 construct: purchased Eurofins Panlab (Safety47 Safety Scan, contract panel)
# [11] = target: T11, EDNRA (Homo sapiens, UniProt P25101); experiment: Safety47 Calcium Flux EDNRA; assay type: cell-based; conditions: for Emax: read-out: Max Response; for EC50: read-out: RC50 (EC50); for IC50: read-out: RC50 (IC50)
# T11 construct: purchased Eurofins Panlab Safety47 Safety Scan
# T11 sequence (P25101 21-427): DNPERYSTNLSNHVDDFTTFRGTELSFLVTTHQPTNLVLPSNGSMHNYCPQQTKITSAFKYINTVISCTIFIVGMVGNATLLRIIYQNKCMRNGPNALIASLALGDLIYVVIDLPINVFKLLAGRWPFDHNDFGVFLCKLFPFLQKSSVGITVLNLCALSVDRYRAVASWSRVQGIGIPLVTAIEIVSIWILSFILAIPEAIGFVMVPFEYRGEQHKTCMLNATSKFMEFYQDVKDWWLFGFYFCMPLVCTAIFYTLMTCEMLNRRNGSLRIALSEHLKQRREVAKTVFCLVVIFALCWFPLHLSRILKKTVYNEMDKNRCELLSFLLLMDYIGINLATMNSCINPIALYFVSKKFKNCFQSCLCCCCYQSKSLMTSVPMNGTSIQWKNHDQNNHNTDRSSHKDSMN
# [12] = target: T12, CAV1.2 (Homo sapiens, UniProt Q13936); experiment: Safety47 Ion Channel CAV1.2; assay type: cell-based; conditions: Blocker; for Emax: read-out: Max Response; for IC50: read-out: RC50 (IC50)
# T12 construct: purchased Eurofins Panlab (Safety47 Safety Scan, contract panel)
# [13] = test system: TFEB ubiquitination; experiment: TFEB cellular ubiquitination assay; assay type: cell-based, human; conditions: TFEB-EGFP immunoprecipitated
# [14] = target: T13, INSR (Homo sapiens, UniProt P06213); experiment: Safety47 Kinase Binding INSR; conditions: Kinases, Inhibitor; for Emax: read-out: Max Response; for IC50: read-out: RC50 (IC50)
# T13 construct: purchased Eurofins Panlab (Safety47 Safety Scan, contract panel)
# T13 sequence (P06213 28-1382, species assumed): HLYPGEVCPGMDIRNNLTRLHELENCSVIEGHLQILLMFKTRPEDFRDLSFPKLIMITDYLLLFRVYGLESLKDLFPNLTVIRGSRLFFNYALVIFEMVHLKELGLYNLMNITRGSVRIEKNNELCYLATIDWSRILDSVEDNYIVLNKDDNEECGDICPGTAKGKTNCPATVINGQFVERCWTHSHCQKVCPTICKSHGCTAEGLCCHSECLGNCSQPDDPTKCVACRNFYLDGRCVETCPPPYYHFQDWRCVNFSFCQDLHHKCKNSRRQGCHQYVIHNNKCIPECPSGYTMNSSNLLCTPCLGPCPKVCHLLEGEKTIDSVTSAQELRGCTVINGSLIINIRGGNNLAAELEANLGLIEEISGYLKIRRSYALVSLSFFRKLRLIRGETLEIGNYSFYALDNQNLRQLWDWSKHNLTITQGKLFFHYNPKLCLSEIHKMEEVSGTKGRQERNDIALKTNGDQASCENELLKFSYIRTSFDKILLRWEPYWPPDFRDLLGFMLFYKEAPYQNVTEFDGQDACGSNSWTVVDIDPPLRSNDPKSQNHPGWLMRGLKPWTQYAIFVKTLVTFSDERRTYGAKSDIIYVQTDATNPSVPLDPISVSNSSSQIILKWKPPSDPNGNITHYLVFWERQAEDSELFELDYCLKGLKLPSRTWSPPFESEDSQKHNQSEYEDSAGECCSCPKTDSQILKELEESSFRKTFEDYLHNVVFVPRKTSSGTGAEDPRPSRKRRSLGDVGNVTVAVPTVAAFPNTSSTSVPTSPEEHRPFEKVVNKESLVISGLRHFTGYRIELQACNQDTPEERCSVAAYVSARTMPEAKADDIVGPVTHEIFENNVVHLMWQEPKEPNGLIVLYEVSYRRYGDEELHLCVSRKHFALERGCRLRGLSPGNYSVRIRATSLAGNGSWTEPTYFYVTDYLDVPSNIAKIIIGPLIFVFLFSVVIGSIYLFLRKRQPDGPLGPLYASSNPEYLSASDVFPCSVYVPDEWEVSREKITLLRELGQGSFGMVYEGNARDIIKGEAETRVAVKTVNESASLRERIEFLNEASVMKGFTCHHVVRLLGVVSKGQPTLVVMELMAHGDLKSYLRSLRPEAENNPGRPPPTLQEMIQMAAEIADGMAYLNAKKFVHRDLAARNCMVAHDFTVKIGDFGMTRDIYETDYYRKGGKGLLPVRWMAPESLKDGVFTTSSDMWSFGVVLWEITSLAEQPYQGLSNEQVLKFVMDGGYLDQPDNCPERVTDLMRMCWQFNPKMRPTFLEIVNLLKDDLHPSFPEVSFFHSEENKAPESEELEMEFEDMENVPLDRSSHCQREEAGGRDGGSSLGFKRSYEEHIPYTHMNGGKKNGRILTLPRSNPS
# T9 sequence (P35372 whole entry, species assumed): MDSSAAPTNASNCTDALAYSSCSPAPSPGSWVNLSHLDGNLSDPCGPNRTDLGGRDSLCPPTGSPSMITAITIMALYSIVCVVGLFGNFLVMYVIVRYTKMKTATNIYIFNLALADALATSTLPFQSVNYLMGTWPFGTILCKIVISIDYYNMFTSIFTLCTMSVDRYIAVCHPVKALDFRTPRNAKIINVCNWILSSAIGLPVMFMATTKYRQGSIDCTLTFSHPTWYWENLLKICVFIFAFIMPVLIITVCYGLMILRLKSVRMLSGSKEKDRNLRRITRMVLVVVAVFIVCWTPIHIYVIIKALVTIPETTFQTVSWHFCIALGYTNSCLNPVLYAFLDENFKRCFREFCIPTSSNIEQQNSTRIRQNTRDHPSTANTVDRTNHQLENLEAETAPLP
# T8 sequence (P41145 whole entry, species assumed): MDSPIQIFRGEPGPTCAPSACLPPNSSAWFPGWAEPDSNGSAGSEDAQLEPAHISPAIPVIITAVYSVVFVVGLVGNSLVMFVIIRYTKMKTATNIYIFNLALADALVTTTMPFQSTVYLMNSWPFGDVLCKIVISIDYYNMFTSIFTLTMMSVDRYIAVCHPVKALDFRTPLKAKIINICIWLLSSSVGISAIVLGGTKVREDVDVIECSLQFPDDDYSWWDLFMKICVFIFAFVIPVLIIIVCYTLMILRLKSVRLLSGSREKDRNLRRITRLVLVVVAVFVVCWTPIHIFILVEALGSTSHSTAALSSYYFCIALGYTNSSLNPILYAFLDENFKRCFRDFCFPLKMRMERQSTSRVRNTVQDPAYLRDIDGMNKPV
# T4 sequence (Q12809 whole entry): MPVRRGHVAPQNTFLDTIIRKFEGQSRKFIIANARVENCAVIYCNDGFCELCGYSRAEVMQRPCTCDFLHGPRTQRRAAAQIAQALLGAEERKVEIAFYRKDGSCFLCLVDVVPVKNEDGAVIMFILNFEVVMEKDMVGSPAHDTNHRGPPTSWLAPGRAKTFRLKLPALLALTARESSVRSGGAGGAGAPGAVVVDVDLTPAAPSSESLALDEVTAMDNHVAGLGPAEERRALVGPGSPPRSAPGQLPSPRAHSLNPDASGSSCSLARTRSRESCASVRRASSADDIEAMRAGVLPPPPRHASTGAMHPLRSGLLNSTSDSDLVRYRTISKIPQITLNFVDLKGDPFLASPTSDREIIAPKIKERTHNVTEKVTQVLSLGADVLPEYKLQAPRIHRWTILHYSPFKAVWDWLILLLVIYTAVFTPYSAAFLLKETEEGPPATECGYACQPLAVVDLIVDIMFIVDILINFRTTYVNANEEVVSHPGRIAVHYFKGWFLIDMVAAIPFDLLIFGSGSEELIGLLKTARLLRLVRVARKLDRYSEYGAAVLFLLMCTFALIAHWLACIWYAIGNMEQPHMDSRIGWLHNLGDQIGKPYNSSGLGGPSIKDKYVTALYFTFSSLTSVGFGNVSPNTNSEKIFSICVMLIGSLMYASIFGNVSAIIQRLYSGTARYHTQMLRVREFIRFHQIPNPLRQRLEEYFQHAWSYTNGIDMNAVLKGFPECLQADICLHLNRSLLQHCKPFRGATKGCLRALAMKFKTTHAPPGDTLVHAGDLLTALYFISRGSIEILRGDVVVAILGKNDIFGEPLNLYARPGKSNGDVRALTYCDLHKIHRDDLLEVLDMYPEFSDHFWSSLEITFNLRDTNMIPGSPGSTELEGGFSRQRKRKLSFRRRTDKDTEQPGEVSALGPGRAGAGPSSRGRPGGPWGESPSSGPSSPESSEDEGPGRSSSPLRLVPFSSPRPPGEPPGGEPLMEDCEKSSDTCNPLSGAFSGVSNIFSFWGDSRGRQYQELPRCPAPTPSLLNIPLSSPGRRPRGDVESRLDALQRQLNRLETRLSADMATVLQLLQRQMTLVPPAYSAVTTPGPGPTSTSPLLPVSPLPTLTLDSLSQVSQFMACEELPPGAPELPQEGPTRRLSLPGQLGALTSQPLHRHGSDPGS
# T7 sequence (P43681 29-627 limits assumed): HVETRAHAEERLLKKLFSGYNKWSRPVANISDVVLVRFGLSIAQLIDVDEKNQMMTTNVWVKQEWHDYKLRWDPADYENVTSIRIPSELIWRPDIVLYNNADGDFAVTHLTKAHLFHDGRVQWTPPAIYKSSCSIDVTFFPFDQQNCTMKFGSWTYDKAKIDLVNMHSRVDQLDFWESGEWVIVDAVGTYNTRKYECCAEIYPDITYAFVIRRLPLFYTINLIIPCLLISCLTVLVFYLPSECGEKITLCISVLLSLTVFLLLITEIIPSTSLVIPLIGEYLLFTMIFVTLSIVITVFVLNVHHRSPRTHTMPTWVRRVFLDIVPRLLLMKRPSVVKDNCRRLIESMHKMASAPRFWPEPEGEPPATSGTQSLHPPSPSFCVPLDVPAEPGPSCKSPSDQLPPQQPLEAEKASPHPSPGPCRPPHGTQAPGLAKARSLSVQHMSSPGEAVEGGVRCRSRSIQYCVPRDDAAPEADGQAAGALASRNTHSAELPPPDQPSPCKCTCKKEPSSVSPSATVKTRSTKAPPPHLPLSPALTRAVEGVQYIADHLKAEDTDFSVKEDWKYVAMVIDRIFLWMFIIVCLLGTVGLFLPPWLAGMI
# T7 sequence (P17787 26-502): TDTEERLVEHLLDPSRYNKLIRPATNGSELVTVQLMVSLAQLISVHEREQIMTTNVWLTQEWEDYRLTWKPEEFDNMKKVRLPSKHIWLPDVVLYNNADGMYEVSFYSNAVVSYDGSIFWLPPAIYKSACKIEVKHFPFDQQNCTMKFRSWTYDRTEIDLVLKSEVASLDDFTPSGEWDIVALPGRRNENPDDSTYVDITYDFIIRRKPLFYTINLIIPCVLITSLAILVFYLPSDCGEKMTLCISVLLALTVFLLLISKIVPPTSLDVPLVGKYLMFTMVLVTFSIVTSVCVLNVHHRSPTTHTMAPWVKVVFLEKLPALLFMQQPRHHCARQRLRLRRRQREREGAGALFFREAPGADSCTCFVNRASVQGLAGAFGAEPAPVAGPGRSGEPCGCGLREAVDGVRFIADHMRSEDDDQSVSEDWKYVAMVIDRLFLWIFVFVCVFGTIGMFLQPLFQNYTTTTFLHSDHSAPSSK
# T2 sequence (P34972 whole entry): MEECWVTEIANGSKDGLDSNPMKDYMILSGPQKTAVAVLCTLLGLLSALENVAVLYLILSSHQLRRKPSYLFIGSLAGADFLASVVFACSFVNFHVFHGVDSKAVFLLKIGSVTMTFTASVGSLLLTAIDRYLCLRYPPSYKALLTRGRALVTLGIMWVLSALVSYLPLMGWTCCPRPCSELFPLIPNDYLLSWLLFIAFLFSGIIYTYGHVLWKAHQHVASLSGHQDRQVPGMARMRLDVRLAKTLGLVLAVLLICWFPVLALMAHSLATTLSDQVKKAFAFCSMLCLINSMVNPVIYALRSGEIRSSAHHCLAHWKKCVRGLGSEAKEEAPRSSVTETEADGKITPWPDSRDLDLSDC
smiles,measurement,setting,value
"Cl.c1ccc2c(Nc3ccc4[nH]ccc4c3)nc(-c3ccncc3)nc2c1 [BC18630, N-1H-indol-5-yl-2-pyridin-4-ylquinazolin-4-amine hydrochloride]",Nuclear protein-protein interaction between DCAF7 and TFEB (PLA),[1],largely reduced
same,Emax,[2]; Agonist,27.8%
same,EC50,[2]; Agonist,> 10 µM
same,Emax,[2]; Antagonist,0%
same,IC50,[2]; Antagonist,> 10 µM
same,Emax,[3]; Agonist,0%
same,EC50,[3]; Agonist,> 10 µM
same,Emax,[3]; Antagonist,37.3%
same,IC50,[3]; Antagonist,> 10 µM
same,IC50,[4],> 10 µM
same,Emax,[4],6.14%
same,Emax,[5]; Agonist,0%
same,EC50,[5]; Agonist,> 10 µM
same,IC50,[5]; Antagonist,> 10 µM
same,Emax,[6]; Agonist,0.8%
same,EC50,[6]; Agonist,> 10 µM
same,Emax,[6]; Antagonist,26.9%
same,IC50,[6]; Antagonist,> 10 µM
same,Emax,[7]; Blocker,12.4%
same,IC50,[7]; Blocker,> 10 µM
same,Emax,[7]; Opener,0%
same,EC50,[7]; Opener,> 10 µM
same,Emax,[8]; Agonist,8.98%
same,EC50,[8]; Agonist,> 10 µM
same,Emax,[8]; Antagonist,1%
same,IC50,[8]; Antagonist,> 10 µM
same,Emax,[9]; Agonist,8.65%
same,Emax,[9]; Antagonist,49.4%
same,EC50,"[9]; cAMP, Agonist",> 10 µM
same,IC50,"[9]; cAMP, Antagonist",> 10 µM
same,Emax,[10]; Agonist,42.6%
same,EC50,[10]; Agonist,> 10 µM
same,Emax,[10]; Antagonist,9.94%
same,IC50,[10]; Antagonist,> 10 µM
same,Emax,[11]; Agonist,0%
same,EC50,[11]; Agonist,> 10 µM
same,Emax,[11]; Antagonist,3.72%
same,IC50,[11]; Antagonist,> 10 µM
same,Emax,[12],0%
same,IC50,[12],> 10 µM
same,TFEB ubiquitination,[13],decreased
same,Emax,[14],15.6%
same,IC50,[14],> 10 µM
"Cl.Fc1cc(Nc2nc(-c3ccncc3)nc3ncccc23)cc2cc[nH]c12 [BC18813, N-(7-fluoro-1H-indol-5-yl)-2-pyridin-4-ylpyrido[2,3-d]pyrimidin-4-amine hydrochloride]",Nuclear protein-protein interaction between DCAF7 and TFEB (PLA),[1],largely reduced
same,Curve Bottom,[2]; Agonist,0
same,Curve Top,[2]; Agonist,100
same,Hill,[2]; Agonist,1.05
same,Emax,[2]; Agonist,63.6%
same,EC50,[2]; Agonist,4.59 µM
same,Emax,[2]; Antagonist,0%
same,IC50,[2]; Antagonist,> 10 µM
same,Emax,[3]; Agonist,0%
same,EC50,[3]; Agonist,> 10 µM
same,Emax,[3]; Antagonist,41.9%
same,IC50,[3]; Antagonist,> 10 µM
same,IC50,[4],> 10 µM
same,Emax,[4],4.86%
same,Emax,[5]; Agonist,38.8%
same,EC50,[5]; Agonist,> 10 µM
same,Emax,[5]; Antagonist,0%
same,IC50,[5]; Antagonist,> 10 µM
same,Curve Bottom,[6]; Agonist,0
same,Curve Top,[6]; Agonist,100
same,Hill,[6]; Agonist,1.07
same,Emax,[6]; Agonist,61%
same,EC50,[6]; Agonist,6.11 µM
same,Emax,[6]; Antagonist,0%
same,IC50,[6]; Antagonist,> 10 µM
same,Emax,[7]; Blocker,0%
same,IC50,[7]; Blocker,> 10 µM
same,Emax,[7]; Opener,0%
same,EC50,[7]; Opener,> 10 µM
same,Emax,[8]; Agonist,24.3%
same,EC50,[8]; Agonist,> 10 µM
same,Emax,[8]; Antagonist,0%
same,IC50,[8]; Antagonist,> 10 µM
same,Emax,[9]; Agonist,24.4%
same,Emax,[9]; Antagonist,53.3%
same,EC50,"[9]; cAMP, Agonist",> 10 µM
same,Curve Bottom,"[9]; cAMP, Antagonist",-9.93
same,Curve Top,"[9]; cAMP, Antagonist",100
same,Hill,"[9]; cAMP, Antagonist",1.01
same,IC50,"[9]; cAMP, Antagonist",7.46 µM
same,Emax,[10]; Agonist,54.8%
same,EC50,[10]; Agonist,> 10 µM
same,Emax,[10]; Antagonist,0%
same,IC50,[10]; Antagonist,> 10 µM
same,Emax,[11]; Agonist,5.5%
same,EC50,[11]; Agonist,> 10 µM
same,Emax,[11]; Antagonist,2.32%
same,IC50,[11]; Antagonist,> 10 µM
same,Emax,[12],0%
same,IC50,[12],> 10 µM
same,TFEB ubiquitination,[13],decreased
same,Emax,[14],0%
same,IC50,[14],> 10 µM

# Reference: PMC12136031 (Science Advances, 2025)
